# Measurements as given in paper PMC9927415, “Tyrosine Kinase Inhibitors Display Potent Activity against Cryptosporidium parvum” (Microbiology Spectrum, 2022).
# How the values were obtained:
# Assay in all cases: KINOMEscan competitive binding, whole panel
# panel of 203 kinases [1] = target: T1, panel of 203 kinases (Homo sapiens, UniProt P35916); settings: 10 µM, n=1; kinase FLT4; read-out: Percent inhibition FLT4
# T1 construct: purchased DiscoverX (KINOMEscan)
# Outline: (§1)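 First, kinases were produced as T7 bacteriophage fusion proteins. Then compounds were added to compete them off probe ligands immobilized on a solid support at the ATP site. Finally, bound kinase was measured and converted to percentage inhibition.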
# panel of 203 kinases [2] = target: T2, panel of 203 kinases (Homo sapiens, UniProt P42685); settings: 10 µM, n=1; kinase FRK; read-out: Percent inhibition FRK
# T2 construct: purchased DiscoverX (KINOMEscan)
# Outline: as §1
# panel of 203 kinases [3] = target: T3, panel of 203 kinases (Homo sapiens, UniProt P53667); settings: 10 µM, n=1; kinase LIMK1; read-out: Percent inhibition LIMK1
# T3 construct: purchased DiscoverX (KINOMEscan)
# Outline: as §1
# panel of 203 kinases [4] = target: T4, panel of 203 kinases (Homo sapiens, UniProt P21709); settings: 10 µM, n=1; kinase EPHA1; read-out: Percent inhibition EPHA1
# T4 construct: purchased DiscoverX (KINOMEscan)
# T4 sequence (P21709 26-976): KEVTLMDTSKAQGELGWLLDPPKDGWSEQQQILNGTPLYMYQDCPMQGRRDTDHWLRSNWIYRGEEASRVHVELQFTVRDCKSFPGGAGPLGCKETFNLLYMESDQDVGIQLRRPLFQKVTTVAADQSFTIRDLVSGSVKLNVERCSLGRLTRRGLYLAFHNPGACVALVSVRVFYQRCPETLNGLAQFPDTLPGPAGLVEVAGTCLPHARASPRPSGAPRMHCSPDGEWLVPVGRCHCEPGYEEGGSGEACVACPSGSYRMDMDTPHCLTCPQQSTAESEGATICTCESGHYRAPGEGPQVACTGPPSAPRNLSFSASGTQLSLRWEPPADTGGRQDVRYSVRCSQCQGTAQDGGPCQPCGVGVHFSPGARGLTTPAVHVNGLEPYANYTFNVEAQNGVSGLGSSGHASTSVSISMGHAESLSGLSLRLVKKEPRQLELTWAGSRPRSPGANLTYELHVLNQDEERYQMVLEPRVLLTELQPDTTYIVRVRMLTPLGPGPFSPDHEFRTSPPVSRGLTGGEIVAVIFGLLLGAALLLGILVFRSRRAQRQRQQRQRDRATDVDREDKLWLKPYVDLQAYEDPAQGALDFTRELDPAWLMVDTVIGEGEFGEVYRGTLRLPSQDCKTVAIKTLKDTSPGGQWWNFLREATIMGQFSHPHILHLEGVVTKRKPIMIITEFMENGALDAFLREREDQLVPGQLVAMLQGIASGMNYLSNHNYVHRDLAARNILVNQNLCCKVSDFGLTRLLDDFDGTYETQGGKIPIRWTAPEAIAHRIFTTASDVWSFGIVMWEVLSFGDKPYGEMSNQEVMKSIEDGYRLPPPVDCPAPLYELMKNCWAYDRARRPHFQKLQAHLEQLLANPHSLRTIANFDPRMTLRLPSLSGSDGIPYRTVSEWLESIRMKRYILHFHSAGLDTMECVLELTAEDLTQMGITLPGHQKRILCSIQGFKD
# Outline: as §1
# panel of 203 kinases [5] = target: T5, panel of 203 kinases (Homo sapiens, UniProt P51813); settings: 10 µM, n=1; kinase BMX; read-out: Percent inhibition BMX
# T5 construct: purchased DiscoverX (KINOMEscan)
# T5 sequence (P51813 1-675): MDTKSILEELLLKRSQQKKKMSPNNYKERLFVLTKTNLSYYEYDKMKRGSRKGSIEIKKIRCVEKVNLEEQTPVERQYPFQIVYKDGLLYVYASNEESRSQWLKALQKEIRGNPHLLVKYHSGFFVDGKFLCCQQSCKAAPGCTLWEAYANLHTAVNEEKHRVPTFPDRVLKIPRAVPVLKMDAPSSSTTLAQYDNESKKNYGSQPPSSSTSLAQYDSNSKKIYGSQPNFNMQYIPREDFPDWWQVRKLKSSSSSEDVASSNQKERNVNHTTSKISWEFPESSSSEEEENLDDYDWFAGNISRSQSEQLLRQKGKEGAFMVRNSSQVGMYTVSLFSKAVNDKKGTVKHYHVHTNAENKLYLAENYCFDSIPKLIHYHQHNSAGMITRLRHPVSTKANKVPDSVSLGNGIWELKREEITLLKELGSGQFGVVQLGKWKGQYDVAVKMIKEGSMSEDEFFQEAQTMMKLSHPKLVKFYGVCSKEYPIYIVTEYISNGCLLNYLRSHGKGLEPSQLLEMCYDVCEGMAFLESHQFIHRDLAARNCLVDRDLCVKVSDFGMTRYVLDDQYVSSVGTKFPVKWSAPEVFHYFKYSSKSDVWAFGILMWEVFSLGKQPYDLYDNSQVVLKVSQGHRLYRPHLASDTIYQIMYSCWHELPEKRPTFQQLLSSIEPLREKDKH
# Outline: as §1
# panel of 203 kinases [6] = target: T6, panel of 203 kinases (Homo sapiens, UniProt Q9HC98); settings: 10 µM, n=1; kinase NEK6; read-out: Percent inhibition NEK6
# T6 construct: purchased DiscoverX (KINOMEscan)
# Outline: as §1
# panel of 203 kinases [7] = target: T7, panel of 203 kinases (Homo sapiens, UniProt Q13131); settings: 10 µM, n=1; kinase AMPK-alpha1; read-out: Percent inhibition AMPK-alpha1
# T7 construct: purchased DiscoverX (KINOMEscan)
# Outline: as §1
# panel of 203 kinases [8] = target: T8, panel of 203 kinases (Homo sapiens, UniProt Q15375); settings: 10 µM, n=1; kinase EPHA7; read-out: Percent inhibition EPHA7
# T8 construct: purchased DiscoverX (KINOMEscan)
# Outline: as §1
# panel of 203 kinases [9] = target: T9, panel of 203 kinases (Homo sapiens, UniProt P53778); settings: 10 µM, n=1; kinase p38-gamma; read-out: Percent inhibition p38-gamma
# T9 construct: purchased DiscoverX (KINOMEscan)
# T9 sequence (P53778 1-367): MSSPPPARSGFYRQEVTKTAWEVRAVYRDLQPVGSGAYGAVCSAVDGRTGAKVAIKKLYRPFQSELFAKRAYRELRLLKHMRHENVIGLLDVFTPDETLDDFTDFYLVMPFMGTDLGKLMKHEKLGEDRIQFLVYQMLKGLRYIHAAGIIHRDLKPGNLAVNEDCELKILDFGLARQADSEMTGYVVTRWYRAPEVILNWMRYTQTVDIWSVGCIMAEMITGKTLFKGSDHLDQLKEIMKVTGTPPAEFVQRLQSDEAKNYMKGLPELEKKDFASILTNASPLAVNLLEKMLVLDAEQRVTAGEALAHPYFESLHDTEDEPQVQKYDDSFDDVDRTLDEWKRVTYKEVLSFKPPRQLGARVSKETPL
# Outline: as §1
# panel of 203 kinases [10] = target: T10, panel of 203 kinases (Homo sapiens, UniProt P36894); settings: 10 µM, n=1; kinase BMPR1A; read-out: Percent inhibition BMPR1A
# T10 construct: purchased DiscoverX (KINOMEscan)
# Outline: as §1
# T10 sequence (P36894 24-532): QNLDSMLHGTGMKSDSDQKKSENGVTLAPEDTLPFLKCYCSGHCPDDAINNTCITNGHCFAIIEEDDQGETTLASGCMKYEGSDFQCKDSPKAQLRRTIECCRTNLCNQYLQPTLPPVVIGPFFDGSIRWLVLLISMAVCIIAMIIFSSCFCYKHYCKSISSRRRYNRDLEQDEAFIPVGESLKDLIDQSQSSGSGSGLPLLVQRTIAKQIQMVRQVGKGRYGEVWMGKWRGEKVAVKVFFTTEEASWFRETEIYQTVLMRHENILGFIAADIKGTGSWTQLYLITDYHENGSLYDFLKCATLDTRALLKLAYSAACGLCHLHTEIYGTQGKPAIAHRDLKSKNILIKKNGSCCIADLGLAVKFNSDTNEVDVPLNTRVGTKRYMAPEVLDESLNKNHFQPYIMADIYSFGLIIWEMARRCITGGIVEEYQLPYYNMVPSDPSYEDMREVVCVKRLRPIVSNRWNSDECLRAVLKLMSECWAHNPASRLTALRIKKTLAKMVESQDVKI
# T8 sequence (Q15375 28-998): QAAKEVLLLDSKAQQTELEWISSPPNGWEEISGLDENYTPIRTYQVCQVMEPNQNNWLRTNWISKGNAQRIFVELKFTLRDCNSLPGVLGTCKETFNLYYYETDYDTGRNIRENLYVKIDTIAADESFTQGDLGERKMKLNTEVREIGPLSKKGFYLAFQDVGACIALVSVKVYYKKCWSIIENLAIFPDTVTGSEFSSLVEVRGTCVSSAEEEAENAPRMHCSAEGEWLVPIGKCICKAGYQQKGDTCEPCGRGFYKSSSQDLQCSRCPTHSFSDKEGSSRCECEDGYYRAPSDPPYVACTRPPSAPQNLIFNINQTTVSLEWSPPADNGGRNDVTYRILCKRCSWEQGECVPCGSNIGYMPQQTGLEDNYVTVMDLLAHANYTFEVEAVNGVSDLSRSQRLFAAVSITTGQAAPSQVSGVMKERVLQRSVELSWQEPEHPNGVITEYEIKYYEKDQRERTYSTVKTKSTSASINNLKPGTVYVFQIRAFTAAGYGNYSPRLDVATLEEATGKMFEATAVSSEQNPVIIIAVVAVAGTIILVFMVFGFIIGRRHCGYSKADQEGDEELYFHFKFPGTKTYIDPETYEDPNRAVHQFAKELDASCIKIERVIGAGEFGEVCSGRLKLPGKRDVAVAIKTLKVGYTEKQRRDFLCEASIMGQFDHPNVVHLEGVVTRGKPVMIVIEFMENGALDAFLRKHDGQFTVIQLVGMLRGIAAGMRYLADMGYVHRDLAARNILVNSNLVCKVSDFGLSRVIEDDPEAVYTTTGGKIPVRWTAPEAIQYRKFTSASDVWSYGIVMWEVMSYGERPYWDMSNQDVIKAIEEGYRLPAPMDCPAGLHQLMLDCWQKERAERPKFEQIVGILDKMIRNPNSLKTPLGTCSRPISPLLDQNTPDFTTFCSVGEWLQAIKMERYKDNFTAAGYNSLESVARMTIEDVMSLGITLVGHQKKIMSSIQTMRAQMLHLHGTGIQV
# T7 sequence (Q13131 whole entry): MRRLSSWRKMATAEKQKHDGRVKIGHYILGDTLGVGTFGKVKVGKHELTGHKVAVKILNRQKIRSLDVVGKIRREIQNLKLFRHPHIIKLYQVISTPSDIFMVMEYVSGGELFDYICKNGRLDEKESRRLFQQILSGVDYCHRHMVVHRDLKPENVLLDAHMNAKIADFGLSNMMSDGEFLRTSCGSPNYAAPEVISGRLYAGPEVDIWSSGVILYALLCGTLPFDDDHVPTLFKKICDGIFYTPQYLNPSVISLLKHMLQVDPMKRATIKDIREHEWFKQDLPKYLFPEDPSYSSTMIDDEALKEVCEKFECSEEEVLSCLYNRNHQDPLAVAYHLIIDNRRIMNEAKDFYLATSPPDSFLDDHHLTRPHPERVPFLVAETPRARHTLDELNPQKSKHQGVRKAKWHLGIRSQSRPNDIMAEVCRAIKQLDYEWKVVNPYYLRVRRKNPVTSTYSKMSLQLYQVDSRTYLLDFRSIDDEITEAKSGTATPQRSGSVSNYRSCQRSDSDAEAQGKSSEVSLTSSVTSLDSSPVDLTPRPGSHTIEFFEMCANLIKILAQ
# T2 sequence (P42685 whole entry): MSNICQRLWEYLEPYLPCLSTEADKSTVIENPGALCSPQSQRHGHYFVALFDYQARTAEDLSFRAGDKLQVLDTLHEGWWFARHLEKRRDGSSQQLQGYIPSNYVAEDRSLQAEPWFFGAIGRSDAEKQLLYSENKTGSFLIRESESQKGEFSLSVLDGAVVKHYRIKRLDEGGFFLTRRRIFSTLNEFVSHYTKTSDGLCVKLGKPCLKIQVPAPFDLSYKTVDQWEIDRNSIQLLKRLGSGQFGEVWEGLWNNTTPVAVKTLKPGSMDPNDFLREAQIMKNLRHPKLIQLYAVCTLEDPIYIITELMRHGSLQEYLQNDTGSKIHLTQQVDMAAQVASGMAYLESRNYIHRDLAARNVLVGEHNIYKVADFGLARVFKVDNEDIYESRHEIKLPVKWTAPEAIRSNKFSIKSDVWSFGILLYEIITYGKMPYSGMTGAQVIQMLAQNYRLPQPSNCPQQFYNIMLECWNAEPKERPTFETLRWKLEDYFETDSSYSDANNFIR
# T1 sequence (P35916 25-1363): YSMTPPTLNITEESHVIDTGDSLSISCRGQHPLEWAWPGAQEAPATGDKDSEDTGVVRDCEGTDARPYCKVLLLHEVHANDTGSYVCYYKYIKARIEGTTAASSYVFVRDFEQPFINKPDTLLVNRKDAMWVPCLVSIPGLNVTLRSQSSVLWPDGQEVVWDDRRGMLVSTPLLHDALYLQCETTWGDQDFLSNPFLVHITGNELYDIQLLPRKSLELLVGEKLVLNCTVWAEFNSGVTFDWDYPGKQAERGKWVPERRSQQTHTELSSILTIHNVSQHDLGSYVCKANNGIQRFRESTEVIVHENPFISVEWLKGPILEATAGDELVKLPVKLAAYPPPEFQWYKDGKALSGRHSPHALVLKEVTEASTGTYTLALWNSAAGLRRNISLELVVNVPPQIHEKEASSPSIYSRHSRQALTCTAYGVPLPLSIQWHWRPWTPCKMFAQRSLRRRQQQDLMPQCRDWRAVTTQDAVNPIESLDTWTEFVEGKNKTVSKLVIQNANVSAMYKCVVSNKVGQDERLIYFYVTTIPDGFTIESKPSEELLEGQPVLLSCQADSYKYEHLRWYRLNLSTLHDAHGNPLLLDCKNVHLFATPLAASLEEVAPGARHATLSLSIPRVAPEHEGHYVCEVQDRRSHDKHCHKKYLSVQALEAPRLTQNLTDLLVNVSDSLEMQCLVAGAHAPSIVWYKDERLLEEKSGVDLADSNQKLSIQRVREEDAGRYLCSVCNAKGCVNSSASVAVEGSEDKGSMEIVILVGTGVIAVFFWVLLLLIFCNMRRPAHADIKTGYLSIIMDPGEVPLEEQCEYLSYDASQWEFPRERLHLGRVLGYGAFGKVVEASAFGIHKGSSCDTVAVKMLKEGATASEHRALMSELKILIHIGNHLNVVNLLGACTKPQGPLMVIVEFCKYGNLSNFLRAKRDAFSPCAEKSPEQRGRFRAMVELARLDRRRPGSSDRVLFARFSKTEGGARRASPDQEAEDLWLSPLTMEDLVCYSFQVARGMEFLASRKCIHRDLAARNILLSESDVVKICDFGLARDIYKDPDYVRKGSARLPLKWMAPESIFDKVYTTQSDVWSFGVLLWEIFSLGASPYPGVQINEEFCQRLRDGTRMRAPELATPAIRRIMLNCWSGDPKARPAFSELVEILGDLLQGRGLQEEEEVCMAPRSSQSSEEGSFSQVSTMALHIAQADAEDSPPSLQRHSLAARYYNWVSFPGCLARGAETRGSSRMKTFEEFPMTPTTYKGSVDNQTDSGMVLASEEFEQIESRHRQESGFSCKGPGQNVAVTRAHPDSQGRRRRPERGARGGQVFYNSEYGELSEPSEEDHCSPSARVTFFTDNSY
# T3 sequence (P53667 whole entry): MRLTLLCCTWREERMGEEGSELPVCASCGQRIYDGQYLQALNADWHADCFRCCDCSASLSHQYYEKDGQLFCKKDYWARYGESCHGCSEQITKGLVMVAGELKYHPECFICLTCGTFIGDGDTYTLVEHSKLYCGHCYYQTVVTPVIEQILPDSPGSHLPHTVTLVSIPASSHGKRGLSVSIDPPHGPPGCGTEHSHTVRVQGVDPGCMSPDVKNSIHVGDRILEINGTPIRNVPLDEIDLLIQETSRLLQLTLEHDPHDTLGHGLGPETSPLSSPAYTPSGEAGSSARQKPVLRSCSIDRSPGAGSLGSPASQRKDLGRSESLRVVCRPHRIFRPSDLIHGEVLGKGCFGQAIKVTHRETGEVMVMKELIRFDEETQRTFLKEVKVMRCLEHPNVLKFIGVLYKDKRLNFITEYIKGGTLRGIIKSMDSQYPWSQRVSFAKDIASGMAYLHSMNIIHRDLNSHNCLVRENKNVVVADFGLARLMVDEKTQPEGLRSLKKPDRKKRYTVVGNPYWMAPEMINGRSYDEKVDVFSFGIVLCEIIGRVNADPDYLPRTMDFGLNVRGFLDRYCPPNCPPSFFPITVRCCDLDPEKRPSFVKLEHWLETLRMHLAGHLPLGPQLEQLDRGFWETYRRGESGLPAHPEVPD
# T6 sequence (Q9HC98 whole entry): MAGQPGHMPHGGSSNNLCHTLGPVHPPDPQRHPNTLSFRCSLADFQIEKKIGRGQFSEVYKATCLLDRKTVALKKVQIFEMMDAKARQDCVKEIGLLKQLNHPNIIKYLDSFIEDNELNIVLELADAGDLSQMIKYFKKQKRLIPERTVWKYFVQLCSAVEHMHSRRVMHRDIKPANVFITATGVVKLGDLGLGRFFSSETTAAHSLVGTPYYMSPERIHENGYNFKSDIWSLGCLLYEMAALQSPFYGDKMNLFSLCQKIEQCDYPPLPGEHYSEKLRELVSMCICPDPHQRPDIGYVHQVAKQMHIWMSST
SMILES,inhibition at 10 µM (panel of 203 kinases [1]),inhibition at 10 µM (panel of 203 kinases [2]),inhibition at 10 µM (panel of 203 kinases [3]),inhibition at 10 µM (panel of 203 kinases [4]),inhibition at 10 µM (panel of 203 kinases [5]),inhibition at 10 µM (panel of 203 kinases [6]),inhibition at 10 µM (panel of 203 kinases [7]),inhibition at 10 µM (panel of 203 kinases [8]),inhibition at 10 µM (panel of 203 kinases [9]),inhibition at 10 µM (panel of 203 kinases [10])
CN1CCN(c2ccc(Nc3nccc(-c4cnn5ncccc45)n3)cc2C#N)CC1 [Compound 1],71.9%,91.8%,85.9%,94.3%,0%,100%,75.7%,67.3%,0%,0%
COc1ccc(Nc2nccc(-c3cnn4ncccc34)n2)cc1 [Compound 2],70.1%,0%,90.5%,92.5%,0%,100%,0%,74.6%,88.4%,0%
Cc1ccc(O)cc1Nc1ccnc(Nc2cccc(C(N)=O)c2)n1 [Compound 3],99.2%,99.6%,86.4%,100%,–,0%,0%,84%,0%,99.2%
Cc1ccc(O)cc1N(C)c1ccnc(Nc2cccc(S(N)(=O)=O)c2)n1 [Compound 4],99.7%,99.5%,91.9%,100%,100%,0%,0%,100%,93%,97%
Fc1cccc(COc2ccc(Nc3ncnc4c3CN(CCN3CCOCC3)CC4)cc2Cl)c1 [Compound 6],0%,0%,0%,0%,0%,0%,0%,0%,0%,0%
COc1cc(Nc2nccc(-c3sc(N)nc3-c3cccc(NC(=O)c4c(F)cccc4F)c3)n2)cc(OC)c1OC [Compound 7],100%,100%,100%,100%,100%,97.4%,98.4%,0%,0%,0%
C[C@@H](Oc1cc(-c2cnc3ccccn23)sc1C(N)=O)c1ccccc1Cl [Compound 8],84%,0%,0%,0%,0%,0%,0%,0%,0%,0%
c1ccc(COc2cccc(-c3ccnc4[nH]ccc34)c2)cc1 [Compound 9],0%,0%,0%,0%,0%,0%,0%,0%,0%,0%
Clc1ccc(Nc2ncc(-c3ccccc3)s2)cc1 [Compound 10],0%,0%,0%,0%,0%,0%,0%,0%,0%,0%
Nc1ncc2c(-c3ccncc3)c[nH]c2n1 [Compound 11],0%,0%,0%,0%,0%,0%,0%,0%,0%,0%
